The values below come from publication PMC2010087, “Cytotoxic and clastogenic effects of soluble chromium compounds on mammalian cell cultures” (British Journal of Cancer, 1979).

Each structure is given as a SMILES string. Like-named read-outs stand apart in the source and are kept apart here.

In data set [1] the test system is CHO cell cultures. In kind it is cell-based, Chinese hamster. As for the experimental part: (§1) MATERIALS AND METHODS Cells.-Cultures of the established pseudo- diploid BHK21 Syrian hamster fibroblast line, and of the established pseudodiploid CHO Chinese hamster ovary fibroblast line were grown at 37?C as monolayers, in Eagle's minimal essential medium supplemented with 10% calf serum. Cultures in glass Petri dishes were maintained in a humidified 5% C02 atmosphere. […] Cell growth was estimated on the basis of the nucleic-acid content (RNA+ DNA) of each culture, deter- mined 5 days after seeding, when controls became confluent. To this purpose nucleotides and nucleic acids were sequentially extracted by differential hydrolyses with perchloric acid (PCA): soluble nucleotides of the intracellular pool were extracted with 5% PCA at 4?C for 30 min, RNA was hydrolysed with 10%/ PCA at 37?C for 1 h, and DNA was hydrolysed with 10% PCA at 70?C for 2 h. Soluble nucleotides and RNA were measured by UV absorption at 260 nm, DNA was measured at 268 nm, with a Hitachi 200-20 double-beam spectrophotometer. In order to label nucleic acids, the cultures were incu- bated with tritiated nucleosides (Radio- chemical Centre, Amersham, England): thy- midine-6-H3 ([3H]-TdR; 2 Ci/mM) and uridine-5-H3 ([3H]-UR; 2-5 Ci/mM) were used at the concentration of 2 µCi/ml. After labelling, nucleotides and nucleic acids were extracted and determined as above, and the radioactivity of liquid samples (0-5 ml) of the different fractions was counted in a Packard Tri-Carb 2425 scintillation counter, using 10 ml of Bray's solution. As stated else- where (Levis et al., 1978a, b) the extraction procedure with PCA allows both quantitative determinations and radioactivity counting of different fractions (soluble nucleotides, RNA and DNA) obtained from the same culture. […] The medium was not changed until the 8th day, when the plates were stained with acetic gentian violet, and scored for survivors. All colonies visible to the naked eye were counted as survivors. Chromosome preparations.-Suspensions of CHO cells were prepared by trypsinization of log-phase cultures and diluted with growth medium in 100mm Petri plates. Each plate received about 8 x 10^5 cells in 10 ml of medium, which was changed 24 h after seeding. At this time 3 x 10^-5 M bromodeoxyuridine (BUdR, Sigma, St Louis, Mo., U.S.A.) was added and the cells were allowed to incor- porate the analogue for two division cycles (30 h). […] The medium was not changed until the cells were collected 30 h later. During the last 4 h of treatment, 0 4 Hg/ml of colchicine (Merck, Darmstadt, Germany) were added. At the end of treatment, metaphase cells were dislodged by gently pipetting the overlaying medium and collected by centrifuging the suspension at 900 rev/min for 5 min. The cell pellet was suspended in 5 ml hypotonic buffer (10% sodium citrate) at 37?C for 10 min and fixed in ethanol/acetic acid (3/1). Fixed cells were heated at 89?C for 10 min in IM NaH2PO4 (pH 8) and stained with Giemsa (Korenberg & Freedlender, 1974). […] Chromium compounds and cell treatments.- Hexavalent chromium (Cr6+) was tested as K2Cr207 (potassium dichromate), K2CrO4 (potassium chromate) and Na2CrO4.4H20 (sodium chromate) (Mallinckrodt, St Louis, Mo., U.S.A.), as Na2Cr2O7.2H20 (sodium dichromate) (Riedel De Haen, Hannover, Germany), as CrO3 (chromic acid) (Merck, Darmstadt, Germany), and as CaCrO4 (cal- cium chromate) (BDH, Poole, England).

Data set [2] relates to CHO cells. Briefly: CHO cell survival (macroscopic colonies). As to conditions: seeded in presence of Cr, treated up to 8th day. The class given is cell-based, Chinese hamster. As for the experimental part: MATERIALS AND METHODS Cells.-Cultures of the established pseudo- diploid BHK21 Syrian hamster fibroblast line, and of the established pseudodiploid CHO Chinese hamster ovary fibroblast line were grown at 37?C as monolayers, in Eagle's minimal essential medium supplemented with 10% calf serum. Cultures in glass Petri dishes were maintained in a humidified 5% C02 atmosphere. […] Cell growth was estimated on the basis of the nucleic-acid content (RNA+ DNA) of each culture, deter- mined 5 days after seeding, when controls became confluent. […] Soluble nucleotides and RNA were measured by UV absorption at 260 nm, DNA was measured at 268 nm, with a Hitachi 200-20 double-beam spectrophotometer. […] After labelling, nucleotides and nucleic acids were extracted and determined as above, and the radioactivity of liquid samples (0-5 ml) of the different fractions was counted in a Packard Tri-Carb 2425 scintillation counter, using 10 ml of Bray's solution. As stated else- where (Levis et al., 1978a, b) the extraction procedure with PCA allows both quantitative determinations and radioactivity counting of different fractions (soluble nucleotides, RNA and DNA) obtained from the same culture. […] The medium was not changed until the 8th day, when the plates were stained with acetic gentian violet, and scored for survivors. All colonies visible to the naked eye were counted as survivors. […]

The subject of a further data set is BHK cells. The conditions noted are these: chronic exposure. As for the experimental part: as §1
Data set [3] has as its system CHO cell cultures. As for the experimental part:
as §1

In data set [4] the test system is CHO cells. As to conditions: 30 h, 1.0 ug/ml Cr6+. As for the experimental part:
as §1

Take `[Ca+2].[O]=[Cr](=[O])([O-])[O-]` [CaCrO4, calcium chromate]: in the data set on CHO cell cultures [1], the “Cell growth (%)” value turned out to be 1% and the RNA/DNA came to 4.8.

Regarding `CC(=O)[O-].CC(=O)[O-].CC(=O)[O-].[Cr+3]` [Cr(COOCH3)3, chromium acetate], the “50% lethal dose (LD50)” value with CHO cells [2] turned out to be 150 µg/mL. In addition, in the data set with CHO cell cultures [1] (5 days in presence of compound, [Cr] 312.0 ug/ml), the “Cell growth (%)” value came out at 1%. The “cytotoxic action on cell growth” value in the data set with BHK cells is “weakly cytotoxic”.

With `[Cl][Cr]([Cl])[Cl]` [CrCl3, chromium chloride], the “Cell growth (%)” value in the data set with CHO cell cultures [1] (5 days in presence of compound, [Cr] 262.0 ug/ml) stood at 61%. The “cytotoxic action on cell growth” value with BHK cells (even at 300 tg/ml Cr3+ (maximum solubility in complete growth medium)) is “little or no cytotoxic action”.

For the compound `O=S(=O)([O-])[O-].O=S(=O)([O-])[O-].[Cr+3].[K+]` [CrK(SO4)2, chromium potassium sulphate], in the data set with CHO cell cultures [1] (5 days in presence of compound, [Cr] 209.0 ug/ml), the “Cell growth (%)” value turned out to be 62%. Moreover, the RNA/DNA with CHO cell cultures [1] (5 days, [Cr] 209.0 ug/ml) is given as 1-4. Also, the “cytotoxic action on cell growth” value with BHK cells is reported as “weakly cytotoxic”.

Consider `[O]=[Cr](=[O])=[O]` [CrO3, chromic acid], for which the “Cell growth (%)” value with CHO cell cultures [1] is recorded as 2%.

With `[K+].[K+].[O]=[Cr](=[O])([O-])[O][Cr](=[O])(=[O])[O-]` [K2Cr2O7, potassium dichromate], the “Cell growth (%)” value in the data set with CHO cell cultures [1] turned out to be 4%.

In the case of `[K+].[K+].[O]=[Cr](=[O])([O-])[O-]` [K2CrO4, potassium chromate], the “Cell growth (%)” value in the data set on CHO cell cultures [1] is given as 5%. Moreover, in the data set on CHO cell cultures [3], the “Sister chromatid exchanges per chromosome” value is on record as 0.50 + 0-01 and the “Sister chromatid exchanges per metaphase” value is on record as 9-80 + 0-31.

As to `[Na+].[Na+].[O]=[Cr](=[O])([O-])[O][Cr](=[O])(=[O])[O-]` [Na2Cr2O7, sodium dichromate], in the data set with CHO cell cultures [1], the “Cell growth (%)” value stood at 3% and the RNA/DNA is 6-9. Moreover, the “increase of chromosome aberrations” value in the data set on CHO cells [4] is on record as “about 10 fold”.

As to `[Na+].[Na+].[O]=[Cr](=[O])([O-])[O-]` [Na2CrO4, sodium chromate], the “Cell growth (%)” value with CHO cell cultures [1] is reported as 6%. In the data set with CHO cell cultures [3], the “Sister chromatid exchanges per chromosome” value is 059 + 0-20 and the “Sister chromatid exchanges per metaphase” value is listed as 10-62 + 0-33.
